Common to all, as to assay type: functional
Test [1] deals with MDA-MB-231. Nature of the test: Antiproliferative activity against human MDA-MB-231 cells assessed as cell growth at 1 uM incubated for 3 days by 3H-thymidine incorporation assay relative to control. Conditions: read-out: Activity.
Test [2] relates to MDA-MB-468. Description: Antiproliferative activity against human MDA-MB-468 cells assessed as cell growth at 1 uM incubated for 3 days by 3H-thymidine incorporation assay relative to control. Conditions: read-out: Activity. On the technique in general: Uptake of a labelled nucleoside into DNA is a usual measure of proliferation.
Test [3] in a line: Antiproliferative activity against human HCT116 cells assessed as cell growth at 1 uM incubated for 3 days by 3H-thymidine incorporation assay relative to control. The conditions noted are these: HCT-116, read-out: Activity.

Regarding `Nc1c(C(=O)Nc2ccccc2C(F)(F)F)sc2nc3c(cc12)CCCC3`, the growth at 1 µM in test [1] is 128%; in test [2] it was 93%; in test [3], 104%.

Regarding `Nc1c(C(=O)Nc2cccc([N+](=O)[O-])c2)sc2nc3c(cc12)CCC3`, the growth at 1 µM in test [1] is 79%; in test [2] it was 46%; in test [3] it was 79%.

Consider `Nc1c(C(=O)Nc2ccccc2Cl)sc2nc3c(c(C(F)(F)F)c12)CCCCCC3`, for which the growth at 1 µM in test [1] worked out at 116%; in test [2], 100%; in test [3] it was 112%.

Regarding `CCc1cccc(NC(=O)c2sc3nc4c(cc3c2N)CC(CC)CC4)c1` (stereo unspecified), the figures for the growth at 1 µM in test [1], in test [2] and in test [3] were 73%, 12% and 73%, respectively.

For the compound `Nc1c(C(=O)Nc2cccc(Br)c2)sc2nc3c(cc12)CCC3`, the growth at 1 µM is 94% in test [1], 53% in test [2] and 93% in test [3].

Regarding `Nc1c(C(=O)Nc2cc(C(F)(F)F)ccc2Cl)sc2nc3c(cc12)CCCCC3`, the growth at 1 µM in test [1] came out at 105%; in test [2] it was 106%; in test [3], 98%.

In the case of `COc1ccc2nc3sc(C(=O)Nc4cc(Cl)ccc4OC)c(N)c3cc2c1`, the results for the growth at 1 µM in test [1], in test [2] and in test [3] were 86%, 104% and 100%, respectively.

As to `Nc1c(C(=O)Nc2cccc(C(F)(F)F)c2)sc2nc3c(cc12)CCCCC3`, the growth at 1 µM in test [1] amounted to 94%; in test [2], 92%; in test [3], 108%.

As to `Cc1ccc2nc3sc(C(=O)Nc4ccccc4)cc3cc2c1`, the growth at 1 µM in test [1] was 92%; in test [2], 81%; in test [3] it was 95%.

On to `Nc1c(C(=O)Nc2ccc(Cl)c(Cl)c2)sc2nc3c(cc12)CCCCC3`, for which the growth at 1 µM stood at 115% in test [1], 77% in test [2] and 103% in test [3].

For the compound `Nc1c(C(=O)Nc2ccc3ccccc3c2)sc2nc3c(cc12)CCC3`, the growth at 1 µM was determined as 81% in test [1], 64% in test [2] and 94% in test [3].

Turning to `Cc1ccc2cc3cc(C(=O)Nc4cnc5ccccc5c4)sc3nc2c1`, the figures for the growth at 1 µM in test [1], in test [2] and in test [3] were 97%, 87% and 99%, respectively.

For the compound `Nc1c(C(=O)Nc2cccc(Cl)c2)sc2nc3c(cc12)CCC3`, the growth at 1 µM was found to be 92% in test [1], 53% in test [2] and 87% in test [3].

`CCOc1ccc2nc3sc(C(=O)Nc4ccc(C(C)=O)cc4)c(N)c3cc2c1`: the growth at 1 µM in test [1] is 97%; in test [2], 87%; in test [3], 96%.

Turning to `COc1ccc(NC(=O)c2sc3nc4c(cc3c2N)CCCCCC4)c(OC)c1`, the growth at 1 µM in test [1] was found to be 119%; in test [2], 110%; in test [3] it was 109%.

Take `CCc1cccc(CC)c1NC(=O)c1sc2nc3c(cc2c1N)CCCC3`: the growth at 1 µM was found to be 115% in test [1], 116% in test [2] and 108% in test [3].

For `Nc1c(C(=O)Nc2ccc3ccccc3c2)sc2nc3c(cc12)CCCC3`, the growth at 1 µM was found to be 120% in test [1], 76% in test [2] and 100% in test [3].

As for `Nc1c(C(=O)Nc2ccccc2Cl)sc2nc3c(cc12)CCCCC3`, the growth at 1 µM is 89% in test [1], 73% in test [2] and 92% in test [3].

`CCc1ccccc1NC(=O)c1sc2nc3c(cc2c1N)CCCC3`: the values for the growth at 1 µM in test [1], in test [2] and in test [3] were 89%, 63% and 86%, respectively.

For the compound `Nc1c(C(=O)Nc2cccc(C(F)(F)F)c2)sc2nc3c(cc12)CCCC3`, the figures for the growth at 1 µM in test [1], in test [2] and in test [3] were 108%, 41% and 82%, respectively.

Consider `Nc1c(C(=O)Nc2cccc([N+](=O)[O-])c2)sc2nc3c(cc12)CCCCC3`, for which the results for the growth at 1 µM in test [1], in test [2] and in test [3] were 67%, 18% and 51%, respectively.

Turning to `Nc1c(C(=O)Nc2c(Cl)cccc2Cl)sc2nc3c(cc12)CCCC3`, the values for the growth at 1 µM in test [1], in test [2] and in test [3] were 93%, 82% and 100%, respectively.

For the compound `Nc1c(C(=O)Nc2cccc(Br)c2)sc2nc3c(cc12)CCCC3`, the growth at 1 µM in test [1] turned out to be 101%; in test [2] it was 45%; in test [3] it was 85%.

As for `Cc1ccc2cc3c(N)c(C(=O)Nc4ccccc4[N+](=O)[O-])sc3nc2c1`, the growth at 1 µM in test [1] stood at 90%; in test [2], 101%; in test [3], 102%.

Take `COc1ccc(NC(=O)c2sc3nc4c(cc3c2N)CCCCCC4)cc1`: the growth at 1 µM in test [1] is 107%; in test [2], 84%; in test [3] it was 106%.

For the compound `Cc1cccc(NC(=O)c2cc3cc4cc(C)ccc4nc3s2)c1`, the growth at 1 µM in test [1] stood at 105%; in test [2], 84%; in test [3], 100%.

In the case of `Cc1ccc(C)c(NC(=O)c2cc3cc4cc(C)ccc4nc3s2)c1`, the values for the growth at 1 µM in test [1], in test [2] and in test [3] were 103%, 77% and 98%, respectively.

Turning to `Nc1c(C(=O)Nc2ccccc2C(F)(F)F)sc2nc3c(cc12)CCCCC3`, the growth at 1 µM in test [1] is 124%; in test [2] it was 100%; in test [3], 112%.

For the compound `Nc1c(C(=O)Nc2ccccc2)sc2nc3c(c(-c4ccco4)c12)CCCCC3`, the growth at 1 µM is 89% in test [1], 71% in test [2] and 65% in test [3].

Regarding `CC(=O)c1ccc(NC(=O)c2sc3nc4ccccc4cc3c2N)cc1`, the growth at 1 µM in test [1] came out at 95%; in test [2], 70%; in test [3] it was 93%.

For the compound `Cc1cc(C)c(NC(=O)c2sc3nc4c(cc3c2N)CCCC4)c(C)c1`, the growth at 1 µM in test [1] was found to be 97%; in test [2] it was 93%; in test [3], 101%.

Take `Nc1c(C(=O)Nc2ccccc2)sc2nc3c(cc12)CCC3`: the growth at 1 µM in test [1] turned out to be 90%; in test [2] it was 76%; in test [3], 94%.

In the case of `Cc1ccc2nc3sc(C(=O)Nc4ccccc4C)cc3cc2c1`, the growth at 1 µM came out at 104% in test [1], 89% in test [2] and 99% in test [3].

`Nc1c(C(=O)Nc2cccc3ccccc23)sc2nc3c(cc12)CCC3`: the values for the growth at 1 µM in test [1], in test [2] and in test [3] were 80%, 67% and 92%, respectively.

`Nc1c(C(=O)Nc2cccc([N+](=O)[O-])c2)sc2nc3c(cc12)CCCC3`: the growth at 1 µM in test [1] is 71%; in test [2] it was 44%; in test [3], 75%.

Turning to `Nc1c(C(=O)Nc2ccc(F)cc2)sc2nc3c(cc12)CCCCCC3`, the growth at 1 µM in test [1] is 100%; in test [2] it was 65%; in test [3], 82%.

In the case of `O=c1c2sc3ncccc3c2ncn1-c1ccccc1`, the growth at 1 µM amounted to 107% in test [1], 101% in test [2] and 96% in test [3].

Consider `CCCCOc1cccc(NC(=O)c2sc3nc4c(cc3c2N)CCCCC4)c1`, for which the growth at 1 µM came to 100% in test [1], 53% in test [2] and 97% in test [3].

`Nc1c(C(=O)Nc2ccccc2F)sc2nc3c(cc12)CCCC3`: the growth at 1 µM in test [1] was 92%; in test [2], 48%; in test [3], 84%.

For the compound `CCc1cccc(C)c1NC(=O)c1sc2nc3c(cc2c1N)CCCC3`, the growth at 1 µM in test [1] was determined as 84%; in test [2], 67%; in test [3], 96%.

For the compound `COc1ccc(OC)c(NC(=O)c2sc3nc4c(cc3c2N)CCCCCC4)c1`, the growth at 1 µM in test [1] amounted to 131%; in test [2], 94%; in test [3], 107%.

Turning to `CC(=O)c1cccc(NC(=O)c2sc3nc4c(cc3c2N)CCCCCC4)c1`, the growth at 1 µM in test [1] worked out at 117%; in test [2] it was 72%; in test [3], 85%.

With `Nc1c(C(=O)Nc2ccc3ccccc3c2)sc2nc3c(cc12)CCCCC3`, the figures for the growth at 1 µM in test [1], in test [2] and in test [3] were 118%, 97% and 103%, respectively.

`Cc1ccc2nc3sc(C(=O)Nc4cccnc4)cc3cc2c1`: the growth at 1 µM is 81% in test [1], 101% in test [2] and 102% in test [3].

Take `COc1ccc(NC(=O)c2sc3nc4c(cc3c2N)CCCCC4)cc1OC`: the growth at 1 µM was found to be 114% in test [1], 77% in test [2] and 98% in test [3].

Regarding `COc1ccc(NC(=O)c2sc3nc4ccccc4cc3c2N)cc1`, the growth at 1 µM in test [1] came out at 101%; in test [2] it was 68%; in test [3], 97%.

Take `COc1ccc(OC)c(NC(=O)c2sc3nc4c(cc3c2N)CCCCC4)c1`: the growth at 1 µM was 117% in test [1], 94% in test [2] and 98% in test [3].

Consider `Cc1cc(C)c(NC(=O)c2sc3nc4c(cc3c2N)CCCCC4)c(C)c1`, for which the growth at 1 µM in test [1] was determined as 98%; in test [2], 89%; in test [3], 99%.

Consider `Nc1c(C(=O)Nc2cccc(Cl)c2)sc2nc3c(cc12)CCCCC3`, for which the growth at 1 µM in test [1] came out at 95%; in test [2], 39%; in test [3] it was 86%.

Turning to `CCOc1ccc2nc3sc(C(=O)Nc4ccc(Cl)cc4)c(N)c3cc2c1`, the growth at 1 µM stood at 97% in test [1], 93% in test [2] and 100% in test [3].

For `Cc1ccccc1NC(=O)c1sc2nc3c(cc2c1N)CCCCC3`, the growth at 1 µM in test [1] was found to be 43%; in test [2], 25%; in test [3], 66%.

With `Nc1c(C(=O)Nc2cccc3ccccc23)sc2nc3c(cc12)CCCCC3`, the growth at 1 µM in test [1] came out at 106%; in test [2], 91%; in test [3], 93%.

(Values after ChEMBL document CHEMBL3758085, “Synthesis and cytotoxicity of thieno[2,3-b]quinoline-2-carboxamide and cycloalkyl[b]thieno[3,2-e]pyridine-2-carboxamide derivatives” (Bioorg Med Chem, 2016).)
